The Ki is the equilibrium dissociation constant of an inhibitor or competing ligand from its target. Higher therefore signals weaker binding.

We go through 21 molecules from ChEMBL document CHEMBL3046493, “Alpha2-Adrenergic Receptors in Intestinal Epithelial Cells: Mechanisms of Signaling, Role, and Regulation” (Med Chem Res, 2004).

This experiment concerns the target Nischarin (Rattus norvegicus, UniProt Q4G017). In words: Binding affinity to I1 imidazoline binding site in Rattus norvegicus (rat) PC12 cells. It counts as cell-based, PC-12.

Chain of Nischarin (Q4G017 whole entry): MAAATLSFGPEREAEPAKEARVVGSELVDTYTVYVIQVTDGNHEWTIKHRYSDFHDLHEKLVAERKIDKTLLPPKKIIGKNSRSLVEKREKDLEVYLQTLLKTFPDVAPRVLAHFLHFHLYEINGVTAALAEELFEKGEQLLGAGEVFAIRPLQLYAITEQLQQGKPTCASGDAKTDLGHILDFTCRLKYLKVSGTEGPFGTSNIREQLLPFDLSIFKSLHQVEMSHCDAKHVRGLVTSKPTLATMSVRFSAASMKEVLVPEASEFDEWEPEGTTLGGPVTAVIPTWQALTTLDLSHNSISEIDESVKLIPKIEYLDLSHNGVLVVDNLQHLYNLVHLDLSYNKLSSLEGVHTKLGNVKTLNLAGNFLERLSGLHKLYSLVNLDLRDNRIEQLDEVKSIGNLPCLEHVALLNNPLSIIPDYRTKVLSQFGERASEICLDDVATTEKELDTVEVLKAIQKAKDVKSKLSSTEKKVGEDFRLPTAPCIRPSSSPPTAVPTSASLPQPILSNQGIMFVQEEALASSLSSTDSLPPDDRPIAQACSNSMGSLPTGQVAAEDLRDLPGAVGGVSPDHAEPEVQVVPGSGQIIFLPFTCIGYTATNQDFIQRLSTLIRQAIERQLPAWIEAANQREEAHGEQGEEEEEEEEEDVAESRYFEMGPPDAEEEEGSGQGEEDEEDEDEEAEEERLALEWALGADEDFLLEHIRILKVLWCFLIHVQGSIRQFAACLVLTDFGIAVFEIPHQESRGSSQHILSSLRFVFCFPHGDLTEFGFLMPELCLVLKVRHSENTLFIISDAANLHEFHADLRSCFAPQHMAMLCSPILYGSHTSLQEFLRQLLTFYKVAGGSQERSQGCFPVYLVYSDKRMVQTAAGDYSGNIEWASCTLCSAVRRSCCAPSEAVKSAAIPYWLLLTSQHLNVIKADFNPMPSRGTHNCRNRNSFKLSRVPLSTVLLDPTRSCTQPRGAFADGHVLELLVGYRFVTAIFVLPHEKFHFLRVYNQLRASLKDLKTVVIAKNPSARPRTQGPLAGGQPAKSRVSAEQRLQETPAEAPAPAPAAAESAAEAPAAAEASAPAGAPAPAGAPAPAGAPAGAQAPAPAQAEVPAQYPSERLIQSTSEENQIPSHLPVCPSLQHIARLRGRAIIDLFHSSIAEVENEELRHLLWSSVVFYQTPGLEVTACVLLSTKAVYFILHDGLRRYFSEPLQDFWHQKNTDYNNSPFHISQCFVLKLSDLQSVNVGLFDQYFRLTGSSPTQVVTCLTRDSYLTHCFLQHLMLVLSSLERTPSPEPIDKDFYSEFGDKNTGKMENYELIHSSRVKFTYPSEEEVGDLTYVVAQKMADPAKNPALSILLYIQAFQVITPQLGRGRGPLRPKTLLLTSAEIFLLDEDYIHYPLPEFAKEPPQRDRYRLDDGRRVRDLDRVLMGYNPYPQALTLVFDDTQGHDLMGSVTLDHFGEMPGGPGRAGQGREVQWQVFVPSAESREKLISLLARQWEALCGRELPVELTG

In the case of `c1ccc(-c2ccccc2CCC2=NCCN2)cc1`, the affinity, expressed as Ki, was 3240 nM. Turning to `c1ccc(C2CC2)c(OCC2=NCCN2)c1` [CIRAZOLINE], the affinity corresponds to a Ki of 1740 nM. For `Clc1cc(I)cc(Cl)c1N=C1NCCN1` [PI-CLONIDINE], the affinity, expressed as Ki, was 0.0339 nM.

`C[C@@H](Oc1ccccc1-c1ccccc1)C1=NCCN1` had a Ki of 3.98 nM. Under `c1ccc(C(CC2=NCCN2)c2ccccc2)cc1` stands 3090 nM; under `Clc1cccc2c1CN(NC1=NCCN1)C2`, 6.92 nM; under `c1ccc([C@H]2C[C@@H]2C2=NCCN2)cc1`, 11.7 nM. Consider `c1ccc([C@@H]2C[C@H]2C2=NCCN2)cc1`, for which affinity was put at a Ki of 347 nM.

In turn, `c1ccc(-c2ccccc2NCC2=NCCN2)cc1` gave a Ki of 0.933 nM. Against the preceding molecule, the Ki is about 370-fold lower. The figure for `C1CN=C(NC(C2CC2)C2CC2)C1` is 513 nM; for `c1ccc2c(CC3=NCCN3)cccc2c1` [NAPHAZOLINE] it is 245 nM. The figure for `C[C@H](CC1=NCCN1)c1ccccc1` is 589 nM; for `c1ccc2cc(C3=NCCN3)ccc2c1` [BENAZOLINE] it is 1.29 nM. Under `C(=C\c1ccccc1)/C1=NCCN1` [TRACIZOLINE] stands 18.6 nM; under `Clc1cccc(Cl)c1N=C1NCCN1` [CLONIDINE], 112 nM. In turn, `C[C@@H](CC1=NCCN1)c1ccccc1` showed a Ki of 7240 nM.

`C[C@H](Oc1ccccc1-c1ccccc1)C1=NCCN1` showed a Ki of 129 nM. The molecule `c1ccc(CCC2=NCCN2)cc1` [PHENYZOLINE] gave a Ki of 3720 nM. Regarding `C1COC(NC(C2CC2)C2CC2)=N1` [RILMENIDINE], the Ki was 11.2 nM. The figure for `c1ccc(-c2ccccc2OCC2=NCCN2)cc1` is 2.34 nM; for `c1ccc(NCC2=NCCN2)cc1` [PHENAMAZOLINE] it is 0.501 nM.
